Results as given in patent US7973061B2, “Anaplastic lymphoma kinase modulators and methods of use” (Exelixis, Inc., priority 2004, dated 2011).

target: T1, ALK (baculovirus expressed human ALK kinase domain F1098-K1410) (Homo sapiens, UniProt Q9UM73); experiment: biochemical; settings: 1 μM ATP, 4 μM poly-AEKY, 12 nM ALK, 2 hours at ambient temperature; read-out: ALK IC50
T1 construct: human ALK kinase domain F1098-K1410; made in house
Procedure, shortened: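 Baculovirus-expressed human ALK kinase domain (F1098-K1410) was run in a luciferase-coupled chemiluminescent format, with ATP near its KM. After 2 h at ambient temperature, remaining ATP was read by luciferase-luciferin luminescence. IC50 came from 10-point dose-response curves fitted to a four-parameter equation with Hill slope.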

T1 sequence (Q9UM73 1098-1410): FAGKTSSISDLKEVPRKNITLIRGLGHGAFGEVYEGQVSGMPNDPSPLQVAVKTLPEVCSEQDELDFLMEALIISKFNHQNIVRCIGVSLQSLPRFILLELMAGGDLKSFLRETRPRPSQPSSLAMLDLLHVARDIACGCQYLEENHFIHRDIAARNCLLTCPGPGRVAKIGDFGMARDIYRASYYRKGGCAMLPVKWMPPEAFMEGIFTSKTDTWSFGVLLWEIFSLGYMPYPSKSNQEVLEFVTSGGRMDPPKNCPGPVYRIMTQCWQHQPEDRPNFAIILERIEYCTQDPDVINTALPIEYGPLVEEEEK

IC50 | Structure (SMILES)
> 2 µM | O=C(COc1ccc(OC(F)(F)F)cc1)NCc1nc(C(=O)O)co1 [Entry 308, 2-({[({4-[(trifluoromethyl)oxy]phenyl}oxy)acetyl]amino}methyl)-1,3-oxazole-4-carboxylic acid]
< 0.05 µM | O=C(COc1ccc(OC(F)(F)F)cc1)NCc1nc(C(=O)N2Cc3ccccc3C2)cs1 [Entry 3, N-{[4-(1,3-dihydro-2H-isoindol-2-ylcarbonyl)-1,3-thiazol-2-yl]methyl}-2-({4-[(trifluoromethyl)oxy]phenyl}oxy)acetamide]
0.05 to 0.5 µM | CCCCCCNC(=O)c1csc(CNC(=O)COc2ccc(OC(F)(F)F)cc2)n1 [Entry 113, N-hexyl-2-({[({4-[(trifluoromethyl)oxy]phenyl}oxy)acetyl]amino}methyl)-1,3-thiazole-4-carboxamide]
0.05 to 0.5 µM | CSCCCNC(=O)c1csc(CNC(=O)COc2ccc(OC(F)(F)F)cc2)n1 [Entry 149, N-[3-(methylthio)propyl]-2-({[({4-[(trifluoromethyl)oxy]phenyl}oxy)acetyl]amino}methyl)-1,3-thiazole-4-carboxamide]
< 0.05 µM | CC(NC(=O)COc1ccc(OC(F)(F)F)cc1)c1nc(C(=O)NCCc2cccc(Cl)c2)cs1 (stereo not drawn) [Entry 1, N-[2-(3-chlorophenyl)ethyl]-2-(1-{[({4-[(trifluoromethyl)oxy]phenyl}oxy)acetyl]amino}ethyl)-1,3-thiazole-4-carboxamide]
0.05 to 0.5 µM | NC(=O)[C@H](Cc1ccccc1)NC(=O)c1csc(CNC(=O)COc2ccc(OC(F)(F)F)cc2)n1 [Entry 188, Nalpha-{[2-({[({4-[(trifluoromethyl)oxy]phenyl}oxy)acetyl]amino}methyl)-1,3-thiazol-4-yl]carbonyl}-L-phenylalaninamide]
> 2 µM | COc1ccccc1CNC(=O)c1csc(CN)n1 [Entry 304, 2-(aminomethyl)-N-{[2-(methyloxy)phenyl]methyl}-1,3-thiazole-4-carboxamide]
0.05 to 0.5 µM | COc1ccc(CNC(=O)c2csc(CNC(=O)COc3ccc(OC(F)(F)F)cc3)n2)cc1OC [Entry 187, N-{[3,4-bis(methyloxy)phenyl]methyl}-2-({[({4-[(trifluoromethyl)oxy]phenyl}oxy)acetyl]amino}methyl)-1,3-thiazole-4-carboxamide]
0.05 to 0.5 µM | O=C(COc1ccc(OC(F)(F)F)cc1)NCc1nc(C(=O)Nc2ccc(C(=O)O)c(O)c2)cs1 [Entry 142, 2-hydroxy-4-({[2-({[({4-[(trifluoromethyl)oxy]phenyl}oxy)acetyl]amino}methyl)-1,3-thiazol-4-yl]carbonyl}amino)benzoic acid]
0.5 to 2 µM | CC1CC(C)CN(C(=O)c2csc(CNC(=O)COc3ccc(OC(F)(F)F)cc3)n2)C1 (stereo not drawn) [Entry 282, N-({4-[(3,5-dimethylpiperidin-1-yl)carbonyl]-1,3-thiazol-2-yl}methyl)-2-({4-[(trifluoromethyl)oxy]phenyl}oxy)acetamide]
0.05 to 0.5 µM | CC(C)(C)c1ccc(OCC(=O)NCc2nc(C(=O)NCCc3cccc(Cl)c3)cs2)cc1 [Entry 67, N-[2-(3-chlorophenyl)ethyl]-2-{[({[4-(1,1-dimethylethyl)phenyl]oxy}acetyl)amino]methyl}-1,3-thiazole-4-carboxamide]
0.05 to 0.5 µM | Cc1ccc(F)cc1CNC(=O)c1csc(CNC(=O)COc2ccc(OC(F)(F)F)cc2)n1 [Entry 47, N-[(5-fluoro-2-methylphenyl)methyl]-2-({[({4-[(trifluoromethyl)oxy]phenyl}oxy)acetyl]amino}methyl)-1,3-thiazole-4-carboxamide]
0.05 to 0.5 µM | O=C(COc1ccc(OC(F)(F)F)cc1)NCc1nc(C(=O)NCc2ccc(Cl)cc2Cl)cs1 [Entry 64, N-[(2,4-dichlorophenyl)methyl]-2-({[({4-[(trifluoromethyl)oxy]phenyl}oxy)acetyl]amino}methyl)-1,3-thiazole-4-carboxamide]
0.05 to 0.5 µM | CCSCCNC(=O)c1csc(CNC(=O)COc2ccc(OC(F)(F)F)cc2)n1 [Entry 146, N-[2-(ethylthio)ethyl]-2-({[({4-[(trifluoromethyl)oxy]phenyl}oxy)acetyl]amino}methyl)-1,3-thiazole-4-carboxamide]
< 0.05 µM | C[C@@H](CNC(=O)c1csc(CNC(=O)COc2ccc(OC(F)(F)F)cc2)n1)c1ccccc1 [Entry 6, N-[(2R)-2-phenylpropyl]-2-({[({4-[(trifluoromethyl)oxy]phenyl}oxy)acetyl]amino}methyl)-1,3-thiazole-4-carboxamide]
0.05 to 0.5 µM | COc1ccc([C@H](C)NC(=O)c2csc(CNC(=O)COc3ccc(OC(F)(F)F)cc3)n2)cc1 [Entry 183, N-{(1S)-1-[4-(methyloxy)phenyl]ethyl}-2-({[({4-[(trifluoromethyl)oxy]phenyl}oxy)acetyl]amino}methyl)-1,3-thiazole-4-carboxamide]
0.5 to 2 µM | C[C@@H]1CN(C(=O)c2csc(CNC(=O)COc3ccc(OC(F)(F)F)cc3)n2)C[C@H](C)O1 [Entry 255, N-[(4-{[(2R,6S)-2,6-dimethylmorpholin-4-yl]carbonyl}-1,3-thiazol-2-yl)methyl]-2-({4-[(trifluoromethyl)oxy]phenyl}oxy)acetamide]
0.05 to 0.5 µM | O=C(COc1ccc(OC(F)(F)F)cc1)NCc1nc(C(=O)NCCc2cccc(Cl)c2)co1 [Entry 31, N-[2-(3-chlorophenyl)ethyl]-2-({[({4-[(trifluoromethyl)oxy]phenyl}oxy)acetyl]amino}methyl)-1,3-oxazole-4-carboxamide]
0.5 to 2 µM | COc1cccc(CNC(=O)c2coc(CNC(=O)COc3ccc(OC(F)(F)F)cc3)n2)c1OC [Entry 223, N-{[2,3-bis(methyloxy)phenyl]methyl}-2-({[({4-[(trifluoromethyl)oxy]phenyl}oxy)acetyl]amino}methyl)-1,3-oxazole-4-carboxamide]
0.05 to 0.5 µM | CCCOCCCNC(=O)c1csc(CNC(=O)COc2ccc(OC(F)(F)F)cc2)n1 [Entry 74, N-[3-(propyloxy)propyl]-2-({[({4-[(trifluoromethyl)oxy]phenyl}oxy)acetyl]amino}methyl)-1,3-thiazole-4-carboxamide]
< 0.05 µM | COc1cccc(CNC(=O)c2csc(CNC(=O)COc3ccc(OC(F)(F)F)cc3)n2)c1OC [Entry 11, N-{[2,3-bis(methyloxy)phenyl]methyl}-2-({[({4-[(trifluoromethyl)oxy]phenyl}oxy)acetyl]amino}methyl)-1,3-thiazole-4-carboxamide]
0.5 to 2 µM | CCCCCCN(CCC#N)C(=O)c1csc(CNC(=O)COc2ccc(OC(F)(F)F)cc2)n1 [Entry 238, N-(2-cyanoethyl)-N-hexyl-2-({[({4-[(trifluoromethyl)oxy]phenyl}oxy)acetyl]amino}methyl)-1,3-thiazole-4-carboxamide]
0.05 to 0.5 µM | CCc1ccc(NC(=O)NCc2nc(C(=O)NCc3cccc(OC)c3OC)cs2)cc1 [Entry 134, N-{[2,3-bis(methyloxy)phenyl]methyl}-2-[({[(4-ethylphenyl)amino]carbonyl}amino)methyl]-1,3-thiazole-4-carboxamide]
0.05 to 0.5 µM | O=C(COc1ccc(OC(F)(F)F)cc1)NCc1nc(C(=O)NCCc2cccc(C(F)(F)F)c2)cs1 [Entry 52, 2-({[({4-[(trifluoromethyl)oxy]phenyl}oxy)acetyl]amino}methyl)-N-{2-[3-(trifluoromethyl)phenyl]ethyl}-1,3-thiazole-4-carboxamide]
